According to ChEMBL document CHEMBL1149122 (J Med Chem, 2004):

Key:
[1] = target: T1, Amine oxidase [flavin-containing] A (Rattus norvegicus, UniProt P21396); assay: Inhibitory concentration towards monoamine oxidase A in rat brain was measured; format: tissue-based
T1 sequence (P21396 whole entry): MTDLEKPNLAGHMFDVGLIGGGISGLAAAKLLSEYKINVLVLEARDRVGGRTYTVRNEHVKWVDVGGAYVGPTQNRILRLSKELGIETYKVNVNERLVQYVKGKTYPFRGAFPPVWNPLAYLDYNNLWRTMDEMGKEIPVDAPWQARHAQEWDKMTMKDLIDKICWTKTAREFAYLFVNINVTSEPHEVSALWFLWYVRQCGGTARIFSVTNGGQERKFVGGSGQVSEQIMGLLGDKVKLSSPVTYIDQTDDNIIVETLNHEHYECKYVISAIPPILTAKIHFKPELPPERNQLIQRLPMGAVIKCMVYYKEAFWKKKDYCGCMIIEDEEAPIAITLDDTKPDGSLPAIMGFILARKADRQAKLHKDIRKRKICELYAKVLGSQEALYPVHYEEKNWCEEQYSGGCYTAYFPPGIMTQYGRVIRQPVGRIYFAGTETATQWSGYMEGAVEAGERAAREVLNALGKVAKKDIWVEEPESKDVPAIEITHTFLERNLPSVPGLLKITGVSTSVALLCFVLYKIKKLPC

[2] = target: T2, Amine oxidase [flavin-containing] B (Homo sapiens, UniProt P27338); assay: Binding affinity towards monoamine oxidase B activity was measured using a benzylamine assay
T2 sequence (P27338 whole entry): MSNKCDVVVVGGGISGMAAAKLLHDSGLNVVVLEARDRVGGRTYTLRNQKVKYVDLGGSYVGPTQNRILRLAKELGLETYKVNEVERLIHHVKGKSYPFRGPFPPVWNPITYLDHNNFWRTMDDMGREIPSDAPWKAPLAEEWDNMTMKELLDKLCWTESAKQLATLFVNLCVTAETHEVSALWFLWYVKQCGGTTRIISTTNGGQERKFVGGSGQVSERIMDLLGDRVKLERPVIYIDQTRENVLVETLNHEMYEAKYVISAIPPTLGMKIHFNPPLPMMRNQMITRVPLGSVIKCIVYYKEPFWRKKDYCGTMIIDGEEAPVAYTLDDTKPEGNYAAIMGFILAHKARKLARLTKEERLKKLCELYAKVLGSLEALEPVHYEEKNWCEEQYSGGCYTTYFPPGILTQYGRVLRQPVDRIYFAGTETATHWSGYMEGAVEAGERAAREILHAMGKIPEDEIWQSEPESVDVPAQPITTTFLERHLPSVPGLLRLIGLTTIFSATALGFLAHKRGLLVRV

[3] = target: T3, Amine oxidase [flavin-containing] A (Homo sapiens, UniProt P21397); assay: Binding affinity towards monoamine oxidase A activity was measured using a kynuramine assay
T3 sequence (P21397 whole entry): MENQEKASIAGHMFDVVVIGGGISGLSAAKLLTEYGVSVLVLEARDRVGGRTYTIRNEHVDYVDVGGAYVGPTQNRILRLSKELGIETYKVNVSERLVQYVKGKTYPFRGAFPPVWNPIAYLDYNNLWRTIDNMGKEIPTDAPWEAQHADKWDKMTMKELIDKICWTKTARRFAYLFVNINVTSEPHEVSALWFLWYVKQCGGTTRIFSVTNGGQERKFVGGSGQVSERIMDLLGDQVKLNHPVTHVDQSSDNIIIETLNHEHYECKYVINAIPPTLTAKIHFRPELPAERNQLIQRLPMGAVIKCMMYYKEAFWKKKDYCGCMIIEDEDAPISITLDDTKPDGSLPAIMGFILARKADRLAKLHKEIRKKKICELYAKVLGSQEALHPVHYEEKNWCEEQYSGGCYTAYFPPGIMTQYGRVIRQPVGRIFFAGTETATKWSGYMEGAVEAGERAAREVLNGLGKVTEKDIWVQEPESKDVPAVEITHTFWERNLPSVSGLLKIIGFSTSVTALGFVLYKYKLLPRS

[4] = target: T4, Amine oxidase [flavin-containing] B (Rattus norvegicus, UniProt P19643); assay: Inhibitory concentration towards monoamine oxidase B in rat brain was measured; format: tissue-based
T4 sequence (P19643 whole entry): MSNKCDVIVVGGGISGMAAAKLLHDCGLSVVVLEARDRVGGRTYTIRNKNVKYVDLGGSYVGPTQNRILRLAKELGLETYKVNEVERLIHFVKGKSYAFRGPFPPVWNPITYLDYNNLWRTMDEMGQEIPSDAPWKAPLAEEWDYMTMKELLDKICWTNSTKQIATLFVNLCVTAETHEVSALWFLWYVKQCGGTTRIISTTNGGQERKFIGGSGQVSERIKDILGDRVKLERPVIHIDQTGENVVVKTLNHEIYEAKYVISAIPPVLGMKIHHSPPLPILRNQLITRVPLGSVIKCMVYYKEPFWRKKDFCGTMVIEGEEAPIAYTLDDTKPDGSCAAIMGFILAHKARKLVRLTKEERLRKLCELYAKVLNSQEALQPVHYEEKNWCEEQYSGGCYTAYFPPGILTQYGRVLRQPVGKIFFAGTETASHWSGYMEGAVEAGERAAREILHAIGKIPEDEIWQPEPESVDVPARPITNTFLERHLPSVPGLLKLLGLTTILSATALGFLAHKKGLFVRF

Row | Structure (SMILES) | IC50 [1] | Ki [2] | Ki [3] | IC50 [4]
1 | C#CCN[C@@H]1CCc2ccc(OC(=O)N(C)CC)cc21 [LADOSTIGIL] | 85 µM | 213 µM | 227 µM | 120 µM
2 | C#CCN[C@@H]1CCc2ccc(O)cc21 |  | 17 µM | 1.9 µM | 
3 | C#CCN(C)[C@@H]1CCc2ccccc21 |  | 0.6 µM | 4.9 µM | 
